Here are results for nine compounds from EP4800018A1, “PAN-KRAS INHIBITOR AND USE THEREOF IN MEDICINES” (Betta Pharmaceuticals Co., Ltd., priority 2023, dated 2025).

For assay [1], the system named is KRAS-G12D mutant tumor cells AGS. Briefly: Cell Proliferation Inhibition Assay (AGS), Cell-titer GLO, 96 h. In kind it is cell-based. The following applies: Homo sapiens, AGS, 96 h, AGS cells, 96 h incubation, Cell-titer GLO; read-out: AGS(G12D). The protocol: KRAS-G12D mutant tumor cells AGS were seeded in low-attachment 96-well plates at a cell density of 1×10^3 cells/well and cultured overnight in a cell culture incubator. […] After incubation at 37°C for 96 h, 50 µL of Cell-titer GLO working solution was added to each well, mixed by shaking, incubated at room temperature for 10 min, and the Luminescence value was read on a multi-function microplate reader. The luminescence data were calculated and converted into inhibition percent. The inhibition percent of cell proliferation was calculated according to the following formula: Inhibition Percent = (MaxValue−MeasuredValue)/(MaxValue−Blank) × 100% [formula] […] Curve fitting was performed using GraphPad Prism software to obtain IC50 values, see Table 1.

The test system of assay [2] is KRAS-G12V mutant tumor cells SW620. Kind of assay: Cell Proliferation Inhibition Assay (SW620), Cell-titer GLO, 96 h. The format is cell-based. The following applies: Homo sapiens, SW-620, 96 h, SW620 cells, 96 h incubation, Cell-titer GLO; read-out: SW620(G12V). The protocol: KRAS-G12V mutant tumor cells SW620 were seeded in low-attachment 96-well plates at a cell density of 1×10^3 cells/well and cultured overnight in a cell culture incubator. After the cells adhered, the test compounds were added to the 96-well plates at final concentrations of 10000, 2000, 400, 80, 16, 3.2, 0.64, 0.13, 0.03, 0 nM (final concentration of DMSO was 0.5% for all). After incubation at 37°C for 96 h, 50 µL of Cell-titer GLO working solution was added to each well, mixed by shaking, incubated at room temperature for 10 min, and the Luminescence value was read on a multi-function microplate reader. The luminescence data were calculated and converted into inhibition percent. The inhibition percent of cell proliferation was calculated according to the following formula: Inhibition Percent = (MaxValue−MeasuredValue)/(MaxValue−Blank) × 100% [formula]
("Max Value" comes from the 0.5% DMSO control well, "Blank" comes from the blank control well, and "Measured Value" comes from the compound-treated well).
Curve fitting was performed using GraphPad Prism software to obtain IC50 values, see Table 1.

`C[C@@H]1OCCCn2c(c3c4cc(ccc42)-c2csc(n2)C[C@H](NC(=O)[C@H]2C[C@@H]2C(F)F)C(=O)N2CCC[C@H](N2)C(=O)OCC(C)(C)C3)-c2cc(N3CCOC(C)(C)C3)cnc21` [Example 153, (1S,2S)-2-(difluoromethyl)-N-((1^5S,6^3S,4S,Z)-1^2-(2,2-dimethylmorpholino)-1^5,10,10-trimethyl-5 ,7-dioxo-1^8,1^9,6^1,6^2,6^3,6^4,6^5,6^6-octahydro-1^5H,^17H-8-oxa-1(13,15)-pyrido[3',2':7,8][1,5]oxazonino[5,6-a]indola-2(4,2)-thiazola-6(1,3)-pyridazinacycloundecaphane-4-yl)cyclopropane-1-carboxamide]: the IC50 was 1.33 nM in assay [1] and 0.28 nM in assay [2]. Turning to `C[C@@H]1OCCCn2c(c3c4cc(ccc42)-c2csc(n2)C[C@H](NC(=O)[C@H]2C[C@@H]2C(F)F)C(=O)N2CCC[C@H](N2)C(=O)OCC(C)(C)C3)-c2cc(N3C[C@@H]4C[C@H]3CN4C)cnc21` [Example 155, (1S,2S)-2-(difluoromethyl)-N-((1^5S,6^3S,4S,Z)-1^5,10,10-trimethyl-1^2-((1S,4S)-5-methyl-2,5-diazabicyclo[2.2.1]heptan-2-yl)-5,7-dioxo-1^8,1^9,6^1,6^26^3,6^4,6^5,6^6-octahydro-1^5H,1^7H-8-oxa-1(13,15)-pyrido[3',2':7,8][1,5]oxazonino[5,6-a]indola-2(4,2)-thiazola-6(1,3)-pyridazinacycloundecaphane-4-yl)cyclopropane-1-carboxamide], the IC50 came out at 1.38 nM in assay [1] and 0.62 nM in assay [2]. For `C[C@@H]1OCCCn2c(c3c4cc(ccc42)-c2csc(n2)C[C@H](NC(=O)[C@H]2C[C@@H]2C(F)F)C(=O)N2CCC[C@H](N2)C(=O)OCC(C)(C)C3)-c2cc(OC[C@@H]3CCCCN3C)cnc21` [Example 156, (1S,2S)-2-(difluoromethyl)-N-((1^5S,6^3S,4S,Z)-1^5,10,10-trimethyl-1^2-(((S)-1-methylpiperidin-2-yl)methoxy)-5,7-dioxo-1^8,1^9,6^1,6^26^36^4,6^5,6^6-octahydro-1^5H,1^7H-8-oxa-1(13,15)-pyrido[3',2':7,8][1,5]oxazonino[5,6-a]indola-2(4,2)-thiazola-6(1,3)-pyridazinacycloundecaphane-4-yl)cyclopropane-1-carboxamide], the IC50 in assay [1] is 8.27 nM. Take `C[C@@H]1OCCCn2c(c3c4cc(ccc42)-c2csc(n2)C[C@H](NC(=O)[C@H]2C[C@@H]2C(F)F)C(=O)N2CCC[C@H](N2)C(=O)OCC(C)(C)C3)-c2cc(OCCN3CCOCC3)cnc21` [Example 157, (1S,2S)-2-(difluoromethyl)-N-((1^5S,6^3S,4S,Z)-1^5,10,10-trimethyl-1^2-(2-morpholinoethoxy)-5,7-dioxo-1^8,1^9,6^1,6^2,6^3,6^4,6^5,6^6-octahydro-1^5H,1^7H-8-oxa-1(13,15)-pyrido[3',2':7,8][1,5]oxazonino[5,6-a]indola-2(4,2)-thiazola-6(1,3)-pyridazinacycloundecaphane-4-yl)cyclopropane-1-carboxamide]: the IC50 in assay [1] was found to be 3.31 nM; in assay [2], 0.58 nM. For `C[C@@H]1OCCCn2c(c3c4cc(ccc42)-c2csc(n2)C[C@H](NC(=O)[C@H]2C[C@@H]2C(F)F)C(=O)N2CCC[C@H](N2)C(=O)OCC(C)(C)C3)-c2cc(N(C)C3CCN(C)C3)cnc21` (stereo partly drawn) [Example 160, (1S,2S)-2-(difluoromethyl)-N-((1^5S,6^3S,4S,Z)-1^5,10,10-trimethyl-1^2-(methyl(1-methylpyrrolidin-3-yl)amino)-5,7-dioxo-1^8,1^9,6^1,6^2,6^3,6^4,6^5,6^6-octahydro-1^5H,1^7H-8-oxa-1(13,15)-pyrido[3',2':7,8][1,5]oxazonino[5,6-a]indola-2(4,2)-thiazola-6(1,3)-pyridazinacycloundecaphane-4-yl)cycloprop ane-1-carboxamide], the IC50 was determined as 2.25 nM in assay [1] and 0.98 nM in assay [2]. In the case of `CCN1CCN(c2cnc3c(c2)-c2c4c5cc(ccc5n2CCCOC3C)-c2csc(n2)CC(NC(=O)C2C3COCC32)C(=O)N2CCCC(N2)C(=O)OCC(C)(C)C4)CC1` [Example 162, (3R,4r,5S)-N-((1^5S,6^3S,4S,Z)-1^2-(4-ethylpiperazin-1-yl)-1^5,10,10-trimethyl-5,7-dioxo-1^8,1^9,6^1,6^2 ,6^3,6^4,6^5,6^6-octahydro-1^5H,1^7H-8-oxa-1(13,15)-pyrido[3',2':7,8][1,5]oxazonino[5,6-a]indola-2(4, 2)-thiazola-6(1,3)-pyridazinacycloundecaphane-4-yl)tetrahydro-2H-pyran-4-carboxamide], the IC50 in assay [1] is 1.08 nM. Take `C[C@@H]1OCCCn2c(c3c4cc(ccc42)-c2csc(n2)C[C@H](NC(=O)[C@H]2C[C@@H]2C(F)F)C(=O)N2CCC[C@H](N2)C(=O)OCC(C)(C)C3)-c2cc(N3C[C@@H]4CCN(C)[C@@H]4C3)cnc21` [Example 163, (1S,2S)-2-(difluoromethyl)-N-((1^5S,6^3S,4S,Z)-1^5,10,10-trimethyl-1^2-((3aS,6aS)-1-methylhexahydropyrrolo[3,4-b]pyrrol-5(1H)-yl)-5,7-dioxo-1^8,1^9,6^1,6^2,6^3,6^4,6^5,6^6-octahydro-1^5H,1^7H-8-oxa-1(1 3,15)-pyrido[3',2':7,8][1,5]oxazonino[5,6-a]indola-2(4,2)-thiazola-6(1,3)-pyridazinacycloundecaphane-4-yl)cyclopropane-1-carboxamide]: the IC50 in assay [1] is 1.44 nM; in assay [2] it was 0.2 nM. With `C[C@@H]1[C@H](C)[C@H]1C(=O)N[C@H]1Cc2nc(cs2)-c2ccc3c(c2)c(c2n3CCCO[C@@H](C)c3ncc(N4C[C@@H](C)O[C@@H](C)C4)cc3-2)CC(C)(C)COC(=O)[C@@H]2CCCN(N2)C1=O` [Example 166, (1r,2R,3S)-N-((1^5S,6^3S,4S,Z)-1^2-((2S,6R)-2,6-dimethylmorpholino)-1^5,10,10-trimethyl-5,7-dioxo-1^8,1^9,6^1,6^2,6^3,6^4,6^5,6^6-octahydro-1^5H,1^7H-8-oxa-1(13,15)-pyrido[3',2':7,8][1,5]oxazonino[5,6-a]indola-2(4,2)-thiazola-6(1,3)-pyridazinacycloundecaphane-4-yl)-2,3-dimethylcyclopropane-1-ca rboxamide], the IC50 came out at 0.36 nM in assay [1] and 0.14 nM in assay [2]. For `C[C@@H]1[C@H](C)[C@H]1C(=O)N[C@H]1Cc2nc(cs2)-c2ccc3c(c2)c(c2n3CCCO[C@@H](C)c3ncc(CN4CCOCC4)cc3-2)CC(C)(C)COC(=O)[C@@H]2CCCN(N2)C1=O` [Example 194, (1r,2R,3S)-2,3-dimethyl-N-((1^5S,6^3S,4S,Z)-1^5,10,10-trimethyl-1^2-(morpholinomethyl)-5,7-dioxo-1^8,1^9,6^1,6^2,6^3,6^4,6^5,6^6-octahydro-1^5H,1^7H-8-oxa-1(13,15)-pyrido[3',2':7,8][1,5]oxazonino[5,6-a]indola-2(4,2)-thiazola-6(1,3)-pyridazinacycloundecaphane-4-yl)cyclopropane-1-carboxamide] the same measures were 3 nM and 1.4 nM.
